Reference: US20230384330A1, “COMPOSITIONS AND METHODS RELATING TO THE IDENTIFICATION AND TREATMENT OF IMMUNOTHROMBOTIC CONDITIONS” (THE REGENTS OF THE UNIVERSITY OF MICHIGAN, priority 2020, published 2023)
Entries after “also recorded” stand apart in the source; their conditions may differ.

How the values were obtained:
[1] = tested on: STAT1; assay: Signal pathway activation in monocytes/PBMC treated with LPS and heparin, microfluidic proteomics (phospho-STAT1); assay type: cell-based, human; settings: LPS 1 ug/ml 4 h cotreated with heparin 10 u/ml, vs LPS alone
[2] = tested on: PBMC; assay: Signaling pathway activation and inflammatory transcriptional programs in PBMC, heparin alone; assay type: cell-based, human
[3] = tested on: p-p65 and p-PKC; assay: Signal pathway activation in CD14+ monocytes treated with LPS and heparin, microfluidic proteomics (p-p65, p-PKC); assay type: cell-based, human; settings: LPS 1 ug/ml 4 h and heparin 10 u/ml, between groups
Method: (§1) FIGS. 3A-3B: Heparin augments type I IFN/STAT1 signaling and tends to blunt CD142/TF transcriptional induction in response to LPS. A) CD14+ monocytes were stimulated with LPS (1 ug/ml; 4 h) and heparin (Hep) (10 u/ml) and signal pathway activation was probed using microfluidic proteomics. […] However, phospo-STAT1 activation was augmented in monocytes cotreated with LPS and Hep. Normalized activation determined by normalizing phospho proteins to total protein. B) qRT-PCR of CD14+ monocytes treated with LPS with and without Hep. […] Fold-change determined normalizing to GAPDH and to NT groups. *p<0.05; #p=0.07
PBMC treatment and stimulation. Approximately 10 million cells were equally divided into 4 fractions and treated with the following (for Hep experiments): 1) Hep (1.5 U/mL), 2) LPS (1 μg/mL), 3) LPS+Hep (1 μg/mL LPS with 1.5 U/mL Hep), and 4) RPMI medium alone. All treatments were performed for 2 hours in suspension at 37° C. and 5% CO2 with gentle vortexing every 30 minutes to prevent cell sedimentation. After 2-hour incubation, cells were centrifuged, and supernatants were collected. Cells were then resuspended in 1 mL PBS (without Ca^2+ and Mg ^2+) for downstream analysis

[4] = tested on: CD142/TF; assay: qRT-PCR of CD142/TF in CD14+ monocytes treated with LPS with and without heparin; assay type: cell-based, human
Method: as §1
PCR gene expression assay. RNA was then eluted in 32 uL RNase free water and concentration and purity were measured using Nanodrop. Applied Biosystems High-Capacity cDNA Reverse Transcription kit was used to convert RNA into cDNA for qPCR per the manufacturer's instructions. PCR was performed in 96 well plate using Taqman master mix and Taqman primers. 1× GAPDH-VIC and 1× target gene-FAM was used for each PCR reaction as housekeeping control gene and target gene respectively (total of 20 μL reaction volume). “No treatment control” is used to normalize each target gene expression for analysis of experimental groups.

[5] = tested on: PBMCs
[6] = tested on: CD142/Tissue factor; assay: CD142/Tissue factor expression on PBMC populations by flow cytometry; assay type: cell-based, human; settings: for CD142 expression (percent positive CD142+) in monocytes and granulocytes: PBMCs, 1 ug/mL LPS or 155 ug/mL LpA, 4 hours; for CD142/Tissue factor induction by LPS: PBMC pre-treated 1 hr with Annexin V 10 ug/ml, then LPS 1 ug/ml 4 hours
Method: (§2) FIGS. 2A-2B: Monocytes activated by inflammatory stimuli increase TF/CD142 expression and activity. PBMC were isolated from healthy controls and stimulated with LPS (1 ug/ml for 4 h) and compared with no treatment (NT) controls. […] B) Tissue factor activity was assessed in both cells and supernatants in PBMC treated with LPS (1 ug/ml for 4 h). The tissue factor activity was quantified based on the ability of TF/FVIIa to activate FX to factor Xa. The amidolytic activity of the TF/FVIIa complex is quantitated by the amount of FXa produced using a highly specific FXa substrate which releases a chromophore upon cleavage. *p<0.05.
(§3) FIGS. 5A-5C: Annexin V peptide pretreatment blocks LPS induction of CD142/Tissue factor and CD142/Tissue factor activity. PBMC were pre-treated for 1 hr with Annexin V (10 ug/ml) or PBS and then stimulated with LPS (1 ug/ml) for 4 hours. PBMC were analyzed with either flow cytometry or tissue factor activity assay. A) Representative SSC vs. FSC gating strategy for Monocytes and Lymphocytes; B) CD142/Tissue factor was assessed by flow cytometry. Annexin V pre-treatment blocks CD142/Tissue factor induction by LPS. C). CD142/Tissue factor activity using substrate cleavage and FXa generation. Results are representative of three independent experiments. *p<0.05
PBMCs were isolated and treated with 1 ug/mL LPS, 155 ug/mL LpA, or a combination of the above for 4 hours with gentle vortexing every 30 minutes. Cells were blocked with Tru-Stain FcX for 10 minutes and then treated with human anti CD142-PE for 30 minutes on ice. Cells were then analyzed via flow cytometry. (A) Representative FSC vs. SSC gating strategy. (B) Percent positive CD142+ for lymphocytes. (C) Percent positive CD142+ for monocytes. (D) Percent positive CD142+ for granulocytes. N=3. *p-value<0.0001 (ANOVA).

[7] = tested on: NFκB; assay: NFκB activation in THP1-Dual monocytes (SEAP, QUANTI-Blue assay); assay type: cell-based, human; settings: 24 h, 77.5 ug/mL Lp(a)
Method: FIG. 10: Lp(a) increases NFκB induction on THP1-Dual monocytes; addition of TLR2 decreases activation effect of Lp(a). THP1-Dual monocytes stimulated for 24 h with 77.5 ug/mL Lp(a), 77.5 μg/mL Lp(a)+10 μg/mL TR2, 77.5 μg/mL Lp(a)+10 μg/mL TR4, and 100 ng/mL Pam2CSK4. After 24 h stimulation, supernatant was collected and NFκB activation was assessed by measuring the levels of SEAP using QUANTI-Blue assay. Levels of SEAP were determined by reading the optical density at 640 nm. *p-value<0.0001 (ANOVA).
THP1-Dual monocytes stimulated for 24 h with 77.5 ug/mL Lp(a), 77.5 ug/mL Lp(a)+10 ug/ml TLR2, 77.5 ug/ml Lp(a)+10 ug/ml TLR4, and 100 ng/mL Pam2CSK4. After 24 h stimulation, supernatant was collected and NFkB activation was assessed by measuring the levels of SEAP using QUANTI-Blue assay. Levels of SEAP were determined by reading the optical density at 640 nm. *p-value<0.0001 (ANOVA). […] THP1-Dual monocytes stimulated for 24 h with 77.5 ug/mL Lp(a), 77.5 ug/mL Lp(a)+10 ug/ml TLR2, 77.5 ug/ml LpA+10 ug/ml TLR4, and 100 ng/mL Pam2CSK4. After 24 h stimulation, supernatant was collected and IRF activation was assessed by measuring the levels of Lucia luciferase using QUANTI-Luc assay. Levels of Lucia luciferase were determined by measuring the relative light units (RLUs) in a luminometer at a 100 ms reading time.

[8] = tested on: CD142/TF; assay: CD142/TF expression in PBMC stimulated with TLR ligands, mass cytometry; assay type: cell-based, human; settings: PBMC from HC stimulated 4 h, vs no treated (NT) controls
Method: FIGS. 12A-12C: Inflammatory mediators increase CD142/TF expression and activity in monocytes. A) PBMC were isolated from HC and stimulated with Pam2CSK4(TLR2), Poly(I:C) (TLR3), and LPS (TLR4) for 4 h. […] Circles represent CD14+ monocytes. B) PBMC were isolated and stimulated with LPS and Ang II (vascular activator) and TF activity was quantified based on the ability of TF/FVIIa to activate FX to factor Xa. The amidolytic activity of the TF/FVIIa complex is quantitated by the amount of FXa produced using a FXa substrate which releases a chromophore upon cleavage. *p<0.05. C) To probe for the mechanisms that regulate TF expression in circulating monocytes, PBMC were isolated and stimulated with LPS with or without Annexin V (AnnV) to block apoptotic sensing (through masking of PS on target cells/particles) in monocytes. […] Results representative of 3 independent experiments.
To determine if inflammatory mediators can drive monocyte TF expression, CD14+ monocytes were isolated from PBMCs and stimulated with TLR ligands (Pam2Csk4; Poly(I:C); LPS) for 4 hours.
Measurement of inflammatory mediated TF expression. To determine if inflammatory mediators can drive monocyte TF expression, CD14+ monocytes were isolated from peripheral blood mononuclear cells (PBMC) and were stimulated with TLR ligands (Pam2Csk4; Poly(I:C); LPS) for 4 hours. To assess if monocyte-bound TF is active, a FXa activity assay was used. CD14+ monocytes were stimulated with LPS and FXa activity was assessed as a marker of TF activity.

[9] = tested on: TF/FVIIa complex; assay: Tissue factor activity assay (TF/FVIIa activation of FX to FXa, chromogenic substrate) in PBMC; assay type: cell-based, human
Method: as §2
as §3, with “Annexin V pre-treatment blocks CD142/Tissue factor induction by LPS. C). CD142/Tissue factor activity using substrate cleavage and FXa generation. Results are representative of three independent experiments. *p<0.05” left out
Active TF catalyzes the conversion of factor X to Xa; TF activity in plasma, microvesicles, and monocytes were measured by quantifying factor Xa activity using the fluorogenic factor Xa substrate (Abcam). TF activity was quantified based on the ability of TF/FVIIa to activate FX to FXa. […]

## heparin
[1]
  phospho-STAT1 activation (phospho protein normalized to total protein): augmented; also recorded: increases in STAT1 activation
[2]
  signaling pathway activation or inflammatory transcriptional programs: no effects
[3]
  p-p65 and p-PKC activation: no differences
[4]; cotreatment with LPS and heparin, fold-change normalized to GAPDH and NT, #p=0.07
  transcriptional induction of CD142/TF by LPS: trend to blunted transcriptional expression; also recorded: seemed to blunt
[5]
  cytotoxicity: not cytotoxic

## lipoprotein (a) [Lp(a)]
[6]
  CD142 expression (percent positive CD142+) in monocytes and granulocytes: upregulated
[7]
  NFκB induction (SEAP, optical density at 640 nm): increases

## Pam2CSK4
[8]
  CD142/TF expression (viSNE plots, CD14+ monocytes): increased CD142/TF expression

## Poly(I:C)
[8]
  CD142/TF expression (viSNE plots, CD14+ monocytes): increased CD142/TF expression

## lipopolysaccharide [LPS]
[8]
  CD142/TF expression (viSNE plots, CD14+ monocytes): increased CD142/TF expression
[6]; LPS 1 ug/ml, 2-4 h, vs no treatment (NT)
  CD142/TF expression in monocytes: induce TF expression; also recorded: rapid and robust induction; also recorded: rapidly drives TF expression
[6]
  CD142 expression (percent positive CD142+) in monocytes and granulocytes: upregulated
[6]; response to LPS
  TF induction in purified CD14+ Mϕ compared with bulk PBMC stimulation: much less TF induction
[9]; PBMC/monocytes stimulated with inflammatory stimulus, vs untreated
  TF activity (FXa production): increases TF activity
[4]; LPS alone, CD14+ monocytes, vs NT
  CD142/TF transcriptional expression: induced

B1: Annexin V (protein, UniProt P08758 2-320, looked up)
Annexin A5: AQVLRGTVTDFPGFDERADAETLRKAMKGLGTDEESILTLLTSRSNAQRQEISAAFKTLFGRDLLDDLKSELTGKFEKLIVALMKPSRLYDAYELKHALKGAGTNEKVLTEIIASRTPEELRAIKQVYEEEYGSSLEDDVVGDTSGYYQRMLVVLLQANRDPDAGIDEAQVEQDAQALFQAGELKWGTDEEKFITIFGTRSVSHLRKVFDKYMTISGFQIEETIDRETSGNLEQLLLAVVKSIRSIPAYLAETLYYAMKGAGTDDHTLIRVMVSRSEIDLFNIRKEFRKNFATSLYSMIKGDTSGDYKKALLLLCGEDD
[6]
  CD142/Tissue factor induction by LPS: blocks
[6]; listed as AnnV
  CD142/Tissue factor induction by LPS: greatly reduced
[6]; listed as annexin V
  CD142/Tissue factor induction by LPS: dramatic blunting
[9]; PBMC pre-treated 1 hr with Annexin V 10 ug/ml, then LPS 1 ug/ml 4 hours
  CD142/Tissue factor activity (FXa generation) induced by LPS: blocks
